The source of these data is BindingDB's records for doi:10.1021/acs.jnatprod.8b00574 (Institute of Medicinal and Aromatic Plants, 2018).

Assay [1] is described as follows: Inhibition of thrombin in human platelet rich plasma assessed as reduction in arachidonic acid-induced platelet aggregation after 5 mins.
Assay [2] can be described thus: Inhibition of thrombin in human platelet rich plasma assessed as reduction in ADP-induced platelet aggregation after 5 mins.
A short description of assay [3]: Inhibition of thrombin in human platelet rich plasma assessed as reduction in thrombin-induced platelet aggregation after 5 mins.
Assay [4] in a line: Inhibition of thrombin in human washed platelets assessed as reduction in thrombin-induced platelet aggregation after 5 mins.

One may read the IC50 as the concentration that gives 50% inhibition. Regarding `CC[C@H](CC[C@@H](C)[C@H]1CC[C@H]2[C@@H]3CC=C4C[C@@H](O)CC[C@]4(C)[C@H]3CC[C@]12C)C(C)C` [stigmast-5-en-3beta-ol], the 50% inhibitory concentration (IC50) in assay [1] amounted to 1500 µM; in assay [2] it was 1500 µM; in assay [3] it was 10.5 µM; in assay [4], 9.2 µM.
